Measurements: US20160144021A1, “Vaccine Composition And Method Of Use” (MEDIMMUNE, LLC, priority 2013, published 2016)

Columns and labels:
Assay type in all cases: in vivo
RSV sF [1] = assay: Serum anti-F IgG and isotype ELISA, naive Sprague Dawley rats; conditions: Day 42
Method: In a subsequent study, the immunogenicity and protection following a prime-boost regimen of RSV-SF was evaluated. 40 naive female Sprague Dawley rats were divided into designated vaccine cohorts of 5-6 animals per cohort. Briefly, test groups were given RSV sF (10 μg or 100 μg per animal) without adjuvant or RSV sF (10 μg or 100 μg per animal) with GLA-SE (2.5 μg in 2% SE). Negative control groups were dosed with placebo (PBS buffer) or adjuvant GLA-SE (2.5 μg/2%) without RSV sF. […] Groups 1-6 were inoculated IM with 500 μL of designated vaccine article on Day 0 and Day 22, while Group 7 was inoculated IN with 200 μL of RSV A2 virus on day 0 only. […] Rats were euthanized at 4 days post challenge on Day 46, the day of peak viral replication determined from Study 1. Lungs (excluding 1 lobe which was formalin-fixed) and noses were homogenized and quantified for viral titers.
Serological responses to vaccination were evaluated at 6 hours post immunization, D22, and D42 for all animals and at Day 14 for a subset of 3 animals per group. […] Serum obtained 6 hours post-immunization was evaluated for cytokine titers by multiplexed ELISA. Serum from Days 14, 22, and 42 were measured for total anti-F IgG ELISA endpoint dilution titers. Day 42 serum was evaluated for the specific contribution of IgG1, IgG2a, and IgG2b anti-F responses by ELISA endpoint dilution titers. […]

RSV A2 [2] = assay: Lung viral titers by plaque assay after RSV challenge, naive BALB/c mice
RSV sF protein = assay: IFNγ and IL-4 ELISPOT of splenocytes, naive cotton rats; conditions: splenocytes 4 days post challenge, RSV sF restimulation
Method: Paired antibodies for cotton rat IFNγ (#DY565) or IL-4 (#DY584) obtained in R&D DuoSet ELISA Systems were used in ELISPOT assay formats for the evaluation of cotton rat cellular immune responses. 96 well PVDF plates (Millipore, Billerica, Mass.) were coated overnight with kit provided capture antibody (anti-IFNγ or anti-IL-4, respectively) at 10 μg/mL in PBS. Plates were blocked with cRPMI-5 for 2 hours. Cells were then incubated on blocked coated plates in cRPMI-5 for 36-48 hours in triplicate with media, RSV sF ([…]), or ConA (5 μg/mL) as a positive control. Following incubation cells were washed away, plates were incubated with included biotinylated detection antibody (1 μg/mL in PBS+1% BSA) followed by streptavidin-HRP (Mabtech, Cincinnati, Ohio) and 3-amino-9-ethylcarbazole (AEC, Vector Labs, Burlingame, Calif.). Plates were read and analyzed using a CTL ImmunoSpot reader and software (Cellular Technology Ltd).

RSV A2 [3] = assay: GFP-tagged RSV A2 micro-neutralization of sera, naive BALB/c mice; conditions: day 28, prior to challenge, 0.3 μg RSV sF days 0 and 14
RSV A2 [4] = assay: RSV A2-GFP neutralizing Ab titers of sera, cynomolgus monkeys
Excerpt: At Day 169, 5 months post vaccination, the booster vaccination was given.

RSV A2 [5] = assay: RSV A2-GFP microneutralization of sera, 1x RSV seropositive BALB/c mice
Method: Naïve female BALB/c mice were divided into designated vaccine cohorts of 8-9 mice each and dosed at Day 0. […] Successful seroconversion was confirmed by F-specific ELISA endpoint titers on Day 0. Groups of 9 mice were inoculated intramuscularly (IM) with the vaccine formulations at Day 0. 3 mice per group were evaluated for cellular immune responses at 10 days post […], while the remaining 5-6 animals per group were followed for serum antibody responses through Day 73.
Serology readouts were made at Days 0, 14, 28, 42, 56, and 73 for each group. Animals were lightly anesthetized with isoflurane and bled intraorbitally. Serum was separated and stored at −20° C. and thawed for testing. Total anti-F IgG were measured at each timepoint, with anti-F IgG1 and anti-F IgG2a ELISA endpoint dilution titers measured at Day 0 and Day 42. RSV neutralization titer was determined by a RSV A2-GFP microneutralization assay. The polyclonal nature of the anti-F IgG response was evaluated on Day 42 by competition ELISA with site-specific monoclonal antibodies to RSV-F. Anti-F IgA endpoint dilution titers were measured at Day 14 for each group.

RSV sF [6] = assay: Serum RSV F-specific IgG, IgG1, IgG2a ELISA, highly seropositive BALB/c mice; conditions: day 84
Method: One hundred three female BALB/c mice (Charles River), ages 6-8 weeks old, were divided into 13 groups. Group 1 had 7 mice and groups 2 through 13 had 8 mice. Following anaesthetization groups 1 through 12 were dosed with 1×10^6 plaque forming units (PFU) in 100 μL of live RSV via an intranasal (IN) route on Day 0 and Day 35. Group 13 was not exposed to RSV. On Day 56, groups 1 through 11 were immunized with placebo (PBS) or vaccine article via an intramuscular (IM) route following anesthesia with isoflurane. The vaccine articles were formulated in a total of 100 μL with 50 μL given in each hind limb. Group 12 was anesthetized with isoflurane and immunized with 1×10^6 PFU in 100 μL of live RSV via an IN route. […] Sera were obtained from retro orbital blood collection at study days 0, 28, 56 70 and 84, separated from whole blood and stored at −20° C. until evaluated. Spleens from 4 animals in each group were harvested for T cell assays on Day 67, 11 days post immunization, or at day 88, 4 days post challenge. Lung cytokines quantified at 4 days after challenge in individual lung homogenates by luminex assay (Milipore).

Substance: RSV sF: RSV soluble F protein, amino acids 1-524 of the RSV A2 F sequence lacking the transmembrane domain, given without adjuvant
- F-specific isotype balance (RSV sF [1]): higher IgG1 titers than IgG2b titers
- animals having detectable lung viral titers (RSV A2 [2]; 4 days post challenge): 4/7
- lung protection (full = 100-fold reduction vs PBS) (RSV A2 [2]; 4 days post challenge): partial lung protection
- detectable lung viral titers (individual animals) (RSV A2 [2]; naive BALB/c, IM days 0 and 14, 0.3 μg RSV sF, challenge day 28, 4 days post challenge): 2.3-3.0 log10 pfu/gram
- F-specific IFNγ ELISPOT response (mean) (RSV sF protein): 58 SFU/million cells
- serum RSV neutralizing titers (RSV A2 [3]): 4.1 log2
- animals with 4-fold boost in neutralizing titers from Day −7 levels (RSV A2 [4]; Day 42): 1/4
- geometric mean RSV neutralizing Ab titer (RSV A2 [4]; Day 42): 3.52±1.14 log 2
- RSV neutralizing Ab titers (RSV A2 [4]; Day 169): 2.97 log 2
- geomean neutralizing Ab titers (RSV A2 [4]; Day 183, 14 days following the third immunization): 4.46±1.79 log 2
- mean RSV neutralizing titers (RSV A2 [5]; Day 14, dose 0.4 μg RSV sF assumed from order): 8.32 log2
- mean RSV neutralizing titers (RSV A2 [5]; Day 14, dose 10 μg RSV sF assumed from order): 8.66 log2
- mean RSV neutralizing titers (RSV A2 [5]; Day 14, second value, dose 2 μg RSV sF assumed from order): 7.82 log2
- Th bias from RSV sF-specific IgG1 and IgG2a serum titers (RSV sF [6]): maintained the Th1 bias
